Laboratory results as given in patent US10800792B2, “Inhibitors of Bruton's tyrosine kinase and method of their use” (JANSSEN PHARMACEUTICA NV, priority 2015, dated 2020).

Molecular target: unphosphorylated-BTK kinase domain (UP-BTK), GST-tagged human BTK (389-659aa) (Homo sapiens (Human), UniProt Q06187)
Test: BTK kinase Lanthascreen binding assay
Details: Lanthascreen tracer competition, 60 minutes incubation; pIC50 = negative log of the IC50 in molar
In short: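 Tracer-displacement binding assay against the non-phosphorylated enzyme, read by Lanthascreen. Reported: pIC50.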

Sequence of unphosphorylated-BTK kinase domain (UP-BTK), GST-tagged human BTK (389-659aa) (Q06187 389-659): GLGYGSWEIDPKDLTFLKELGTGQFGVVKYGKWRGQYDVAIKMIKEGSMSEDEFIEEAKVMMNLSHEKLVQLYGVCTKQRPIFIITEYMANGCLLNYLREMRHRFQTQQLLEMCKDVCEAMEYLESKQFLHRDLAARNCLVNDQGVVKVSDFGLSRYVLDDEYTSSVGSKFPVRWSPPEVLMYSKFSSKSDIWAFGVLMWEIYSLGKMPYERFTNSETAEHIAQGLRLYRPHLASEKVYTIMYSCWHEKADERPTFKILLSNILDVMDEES

Structure (SMILES) | BTK_I_binding pIC50
CCC(=O)N1CCC[C@@H](NC(=O)c2sc3nccc4c3c2NC(=O)N4c2ccc(Oc3ccccc3)cc2C)C1 [Example 871, (R)-5-(2-Methyl-4-phenoxyphenyl)-4-oxo-N-(1-propionylpiperidin-3-yl)-4,5-dihydro-3H-1-thia-3,5,8-triazaacenaphthylene-2-carboxamide] | 7.3
Cc1cc(Oc2ccccc2)cnc1N1C(=O)Nc2c(C(=O)N[C@@H]3CCCNC3)sc3nccc1c23 [Example 595, (R)-5-(3-Methyl-5-phenoxypyridin-2-yl)-4-oxo-N-(piperidin-3-yl)-4,5-dihydro-3H-1-thia-3,5,8-triazaacenaphthylene-2-carboxamide] | 7.1
Cc1cc(Oc2ccccc2)ccc1N1C(=O)Nc2c(C(=O)N[C@@H]3CCCN(C(=O)/C(C#N)=C/C4CC4)C3)sc3nccc1c23 [Example 850, (R,E)-N-(1-(2-Cano-3-cyclopropylacryloyl)piperidin-3-yl)-5-(2-methyl-4-phenoxyphenyl)-4-oxo-4,5-dihydro-3H-1-thia-3,5,8-triazaacenaphthylene-2-carboxamide] | 7.6
O=C(N[C@@H]1CCNC1)c1sc2nccc3c2c1NC(=O)N3c1cccc(-c2ccccc2)c1 [Example 599, (R)-5-([1,1′-Biphenyl]-3-yl)-4-oxo-N-(pyrrolidin-3-yl)-4,5-dihydro-3H-1-thia-3,5,8-triazaacenaphthylene-2-carboxamide] | 6.5
C=CC(=O)N1CCC[C@@H](NC(=O)c2sc3nccc4c3c2NC(=O)N4c2ccc(OC(C)C)c(C)c2)C1 [Example 633, (R)—N-(1-Acryloylpiperidin-3-yl)-5-(4-isopropoxy-3-methylphenyl)-4-oxo-4,5-dihydro-3H-1-thia-3,5,8-triazaacenaphthylene-2-carboxamide] | 5.8
CC(C)(C)OC(=O)N1CCC[C@@H](NC(=O)c2sc3nccc4c3c2NC(=O)N4c2cccc(C(C)(C)C)c2)C1 [Example 648, (R)-tert-Butyl 3-(5-(3-(tert-butyl)phenyl)-4-oxo-4,5-dihydro-3H-1-thia-3,5,8-triazaacenaphthylene-2-carboxamido)piperidine-1-carboxylate] | <5
O=C(N[C@@H]1CCCNC1)c1sc2nccc3c2c1NC(=O)N3c1cccc(OC(F)(F)F)c1 [Example 620, (R)-4-Oxo-N-(piperidin-3-yl)-5-(3-(trifluoromethoxy)phenyl)-4,5-dihydro-3H-1-thia-3,5,8-triazaacenaphthylene-2-carboxamide] | <6
COc1ccc(N2C(=O)Nc3c(C(=O)N[C@@H]4CCCN(C(=O)/C(C#N)=C/C5CC5)C4)sc4nccc2c34)c(C)c1 [Example 862, (R,E)-N-(1-(2-Cyano-3-cyclopropylacryloyl)piperidin-3-yl)-5-(4-methoxy-2-methylphenyl)-4-oxo-4,5-dihydro-3H-1-thia-3,5,8-triazaacenaphthylene-2-carboxamide] | 7.3

Same assay, conditions: Lanthascreen tracer competition, 60 minutes incubation; pIC50 = negative log of the IC50 in molar; read-out: BTK_I_binding pIC50 (converted)

Structure (SMILES) | IC50 [µM]
Cc1cc(Oc2ccccc2)ccc1N1C(=O)Nc2c(C(=O)N[C@@H]3CCCN(C#N)C3)sc3nccc1c23 [Example 852, (R)—N-(1-Cyanopiperidin-3-yl)-5-(2-methyl-4-phenoxyphenyl)-4-oxo-4,5-dihydro-3H-1-thia-3,5,8-triazaacenaphthylene-2-carboxamide] | 0.0316

Same assay, conditions: pIC50 = negative log of the IC50 in molar; 60 minutes incubation, 50 nM Tracer 236

Structure (SMILES) | BTK_I_binding pIC50
CCO/C=C/C(=O)N1CCC[C@@H](NC(=O)c2sc3nccc4c3c2NC(=O)N4c2ccc(Oc3ccccc3)cc2C)C1 (mixture of isomers) [Example 221, (R,E)-N-(1-(3-Ethoxyacryloyl)piperidin-3-yl)-5-(2-methyl-4-phenoxyphenyl)-4-oxo-4,5-dihydro-3H-1-thia-3,5,8-triazaacenaphthylene-2-carboxamide] | 6.9
COC[C@H](N)C(=O)N1CCC[C@@H](NC(=O)c2sc3nccc4c3c2NC(=O)N4c2ccc(Oc3ccccc3)cc2C)C1 [Example 120, N—((R)-1-((S)-2-Amino-3-methoxypropanoyl)piperidin-3-yl)-5-(2-methyl-4-phenoxyphenyl)-4-oxo-4,5-dihydro-3H-1-thia-3,5,8-triazaacenaphthylene-2-carboxamide] | 7.1
Cc1cc(Oc2ccccc2)ccc1N1C(=O)Nc2c(C(=O)N[C@@H]3CCCN(C(=O)/C=C/C(C)(C)C)C3)sc3nccc1c23 [Example 274, (R,E)-N-(1-(4,4-Dimethylpent-2-enoyl)piperidin-3-yl)-5-(2-methyl-4-phenoxyphenyl)-4-oxo-4,5-dihydro-3H-1-thia-3,5,8-triazaacenaphthylene-2-carboxamide] | 6.3
C=CC(=O)N1CCC[C@@H](NC(=O)c2sc3nccc4c3c2NC(=O)N4c2ccc(Cl)cc2)C1 [Example 256, (R)—N-(1-Acryloylpiperidin-3-yl)-5-(4-chlorophenyl)-4-oxo-4,5-dihydro-3H-1-thia-3,5,8-triazaacenaphthylene-2-carboxamide] | 6.6
C=CC(=O)N1CCC[C@@H](NC(=O)c2sc3nccc4c3c2NC(=O)N4c2ccc(Oc3ccccc3)nn2)C1 [Example 121, (R)—N-(1-Acryloylpiperidin-3-yl)-4-oxo-5-(6-phenoxypyridazin-3-yl)-4,5-dihydro-3H-1-thia-3,5,8-triazaacenaphthylene-2-carboxamide] | 6.7
CCOc1ccccc1Oc1ccc(N2C(=O)Nc3c(C(=O)N[C@@H]4CCCN(C)C4)sc4nccc2c34)c(C)c1 [Example 157, (R)-5-(4-(2-Ethoxyphenoxy)-2-methylphenyl)-N-(1-methylpiperidin-3-yl)-4-oxo-4,5-dihydro-3H-1-thia-3,5,8-triazaacenaphthylene-2-carboxamide] | 6.6
Cc1cc(Oc2ccccc2)ccc1N1C(=O)Nc2c(C(=O)N[C@@H]3CCN(C(=O)/C=C/CO)C3)sc3nccc1c23 [Example 30, (R,E)-N-(1-(4-Hydroxybut-2-enoyl)pyrrolidin-3-yl)-5-(2-methyl-4-phenoxyphenyl)-4-oxo-4,5-dihydro-3H-1-thia-3,5,8-triazaacenaphthylene-2-carboxamide] | 7.6
C/C=C\C(=O)N1CCC[C@@H](NC(=O)c2sc3nccc4c3c2NC(=O)N4c2ccc(Oc3ccccc3)cc2C)C1 [Example 116, (R,Z)—N-(1-(But-2-enoyl)piperidin-3-yl)-5-(2-methyl-4-phenoxyphenyl)-4-oxo-4,5-dihydro-3H-1-thia-3,5,8-triazaacenaphthylene-2-carboxamide] | 7.2

Same assay, conditions: pIC50 = negative log of the IC50 in molar; 60 minutes incubation, 50 nM Tracer 236; read-out: BTK_I_binding pIC50 (converted)

Structure (SMILES) | IC50 [µM]
CCOC(C)(C)C=C(C#N)C(=O)N1CCC[C@@H](NC(=O)c2sc3nccc4c3c2NC(=O)N4c2ccc(Oc3ccccc3)cc2C)C1 (mixture of isomers) [Example 29, (R,EZ)—N-(1-(2-Cyano-4-ethoxy-4-methylpent-2-enoyl)piperidin-3-yl)-5-(2-methyl-4-phenoxyphenyl)-4-oxo-4,5-dihydro-3H-1-thia-3,5,8-triazaacenaphthylene-2-carboxamide] | 0.0501
COc1ccc(N2C(=O)Nc3c(C(=O)N[C@@H]4CCCN(C(=O)/C(C#N)=[13CH]\C5CC5)C4)sc4nccc2c34)c(C)c1 [Example 176, ^13C—(R,Z)—N-(1-(2-Cyano-3-cyclopropylacryloyl)piperidin-3-yl)-5-(4-methoxy-2-methylphenyl)-4-oxo-4,5-dihydro-3H-1-thia-3,5,8-triazaacenaphthylene-2-carboxamide] | 0.0631

Same assay, conditions: unphosphorylated-BTK kinase domain, 50 nM Tracer 236, 60 minutes; pIC50 = negative log of the IC50 in molar

Structure (SMILES) | BTK_I_binding pIC50
C=CC(=O)N1C[C@H](F)C[C@@H](NC(=O)c2sc3nccc4c3c2NC(=O)N4c2ccc(Oc3ccccc3)cc2C)C1 (relative stereo) [Example 499, N-((3R,5R)-1-Acryloyl-5-fluoropiperidin-3-yl)-5-(*S)-(2-methyl-4-phenoxyphenyl)-4-oxo-4,5-dihydro-3H-1-thia-3,5,8-triazaacenaphthylene-2-carboxamide] | 7.9
Cc1cc(Oc2ccccc2)ccc1N1C(=O)Nc2c(C(=O)NC3COCCN(C#N)C3)sc3nccc1c23 (single isomer, unassigned) [Example 485, N-(4-Cyano-1,4-oxazepan-6-yl)-5-(*S)-(2-methyl-4-phenoxyphenyl)-4-oxo-4,5-dihydro-3H-1-thia-3,5,8-triazaacenaphthylene-2-carboxamide] | 7.9
O=C(N[C@@H]1CCCNC1)c1sc2nccc3c2c1NC(=O)N3c1ccccc1 [Example 348, (R)-4-Oxo-5-phenyl-N-(piperidin-3-yl)-4,5-dihydro-3H-1-thia-3,5,8-triazaacenaphthylene-2-carboxamide] | <5
Cc1cc(Oc2ccccc2)ccc1N1C(=O)Nc2c(C(=O)N[C@@H]3CCN(C(=O)/C=C/CN(C)C)C3)sc3nccc1c23 (single isomer, unassigned) [Example 502, (R,E)-N-(1-(4-(Dimethylamino)but-2-enoyl)pyrrolidin-3-yl)-5-(*S)-(2-methyl-4-phenoxyphenyl)-4-oxo-4,5-dihydro-3H-1-thia-3,5,8-triazaacenaphthylene-2-carboxamide] | 7.9
CC(C)Oc1ccc(N2C(=O)Nc3c(C(=O)N[C@@H]4CCCN(C(=O)/C(C#N)=C/C5CC5)C4)sc4nccc2c34)cc1 [Example 399, (R,E)-N-(1-(2-Cyano-3-cyclopropylacryloyl)piperidin-3-yl)-5-(4-isopropoxyphenyl)-4-oxo-4,5-dihydro-3H-1-thia-3,5,8-triazaacenaphthylene-2-carboxamide] | 7.5
C=CC(=O)N1CCC[C@@H](NC(=O)c2sc3nccc4c3c2NC(=O)N4c2ccc(Oc3ccccc3)nc2)C1 [Example 506, (R)—N-(1-Acryloylpiperidin-3-yl)-4-oxo-5-(6-phenoxypyridin-3-yl)-4,5-dihydro-3H-1-thia-3,5,8-triazaacenaphthylene-2-carboxamide] | 7.9
